Experimental data: US20140088006A1, “Stem Cell Mobilization and Tissue Repair and Regeneration” (Wellstat Therapeutics Corporation, priority 2011, published 2014)
Values joined by “and” are separate entries in the source; they are usually repeats but may differ in a detail not shown here. Equal values may be shown once. No end group written: not given here.

What was measured:
[1] = system: peripheral blood cells; assay: FACS phenotype of peripheral blood cells after single subcutaneous injection; format: in vivo, C57Bl6 mice; details: for Phenotype Lin−/Sca-1+ / Phenotype Lin−/Sca-1−: mononuclear cells; for Phenotype CD19+ / Phenotype Gr-1 High / Phenotype Gr-1 Low: individual mice
Experimental: C57Bl6 male mice, from 8 weeks to 4 month of age, from Harlan were used. […] 20 μl of blood was removed from each tube for WBC counts;
200 μl of blood was used for FACS analysis of cells phenotypes: briefly 50 μl of blood was transferred to a 15 ml polypropylene tube containing 1 ml ACK lysis buffer and the tubes left at room temperature for 6 minutes. 50 μl of a 1:50 dilution of Fc block (Pharmingen 01241A) along with 2 ul of anti-CD19FITC (Pharmingen 09654A) and 2 μl of anti-Gr-1PE (Pharmingen 01215A) was added and the tubes left at room temperature for 30 minutes protected from light. The cells were washed with 3 ml FACS buffer, resuspended in 300 μl FACS buffer and kept on ice, protected from light until acquired on the FACSCalibur.
For flow cytometry analysis the blood was stained with antibodies and a phenotype determined by FACS as described before. In addition to the whole blood FACS phenotyping, Ficolled blood was also stained to monitor the Lin−/Sca+ phenotype. The cells were washed with 3 ml FACS buffer, resuspended in 300 μl FACS buffer and kept on ice, protected from light until acquired on the FACSCalibur

[2] = system: streptozotocin-induced diabetic mice; assay: STZ diabetes model; format: in vivo, C57BL/6 female mice
Experimental: In order to look at the ability of Compound X mobilized stem cells to mediate tissue regeneration in vivo subcutaneous injections of 250 μg/kg of Compound X were compared with the ability of Compound X treated bone marrow cells to regenerate pancreas in a streptozoticin-induced diabetic model. Streptozotocin (STZ) is an antibiotic that preferentially kills the insulin secreting beta cells in pancreas. STZ-induced diabetes is a widely used model of pancreatic insufficiency.
Streptozotocin was dissolved and diluted into citric acid buffer (pH 4.5) immediately before injections. Drinking water and food were removed for 6 hours from 8-week old C57BL/6 female mice (Charles River) before mice were given a single intraperitoneal dose of 150 mg/kg STZ (Day −4). Blood for glucose determination was obtained from the tail vein four days post STZ. Blood glucose was measured by using an Elite glucometer (Bayer). Mice were considered diabetic if their blood glucose was >300 mg/dL. Mice showing >300 mg/dL blood glucose were randomized and divided into 5 groups of 10 mice (day 0). […]
After 96 hours of expansion, cells were harvested and processed for fluorescence activated cell sorting (FACS). […] Stained cells were excited with laser 2 (488 nm) and fluorescence emission was detected using the following optical filters, FL-3 (PerCP-Cy5.5) 695/BP40, FL-2 (phycoerythrin) 585/BP42 and FL-1 (FITC) 530/BP30. […]

FPHFDLSHGSAQV [Compound X, tridecapeptide that acts on stem cells]
Phenotype Lin−/Sca-1+ ([1]; 50 μg/kg, 1-hour): 0.4% | Phenotype Lin−/Sca-1− ([1]; 50 μg/kg, 1-hour): 0.8% | Phenotype Lin−/Sca-1+ ([1]; 50 μg/kg, 30-min): 0.5% | Phenotype Lin−/Sca-1− ([1]; 50 μg/kg, 30-min): 1.0% | Phenotype Lin−/Sca-1+ ([1]; 250 μg/kg, 1-hour): 0.8% | Phenotype Lin−/Sca-1− ([1]; 250 μg/kg, 1-hour): 1.1% | Phenotype Lin−/Sca-1+ ([1]; 250 μg/kg, 30-min): 0.6% | Phenotype Lin−/Sca-1− ([1]; 250 μg/kg, 30-min): 1.1% | Phenotype CD19+ ([1]; s.c. 50 μg/kg, 1 hr): 38.3% and 41.0% and 29.6% | Phenotype Gr-1 High ([1]; s.c. 50 μg/kg, 1 hr): 26.0% and 27.7% and 29.4% | Phenotype Gr-1 Low ([1]; s.c. 50 μg/kg, 1 hr): 3.5% (2×) and 7.0% | Phenotype CD19+ ([1]; s.c. 50 μg/kg, 4 hr): 33.9% and 40.9% and 29.1% | Phenotype Gr-1 High ([1]; s.c. 50 μg/kg, 4 hr): 25.0% and 16.7% and 29.1% | Phenotype Gr-1 Low ([1]; s.c. 50 μg/kg, 4 hr): 6.2% and 7.6% and 5.3% | Phenotype CD19+ ([1]; s.c. 250 μg/kg, 1 hr): 14.8% and 4.8% and 14.5% | Phenotype Gr-1 High ([1]; s.c. 250 μg/kg, 1 hr): 55.2% and 18.7% and 6.8% | Phenotype Gr-1 Low ([1]; s.c. 250 μg/kg, 1 hr): 3.5% and 2.1% and 2.4% | Phenotype CD19+ ([1]; s.c. 250 μg/kg, 4 hr): 46.7% and 48.5% and 46.6% | Phenotype Gr-1 High ([1]; s.c. 250 μg/kg, 4 hr): 16.1% and 12.9% and 11.7% | Phenotype Gr-1 Low ([1]; s.c. 250 μg/kg, 4 hr): 5.1% and 5.5% and 6.6% | mobilization of lineage negative progenitors ([1]; s.c. 50 or 250 μg/kg, 30 min and 1 hr): did not have such an effect | Survival of STZ treated mice ([2]; s.c. 250 μg/kg for 5 consecutive days for 3 weeks, STZ 150 mg/kg): 100% | mice with substantial weight loss ([2]; s.c. 250 μg/kg stem cell mobilizing doses): No mice
